Data: ChEMBL document CHEMBL1144835, “Bioactive metabolites from the South African marine mollusk Trimusculus costatus” (J Nat Prod, 2008)

Test: Cytotoxicity against human WHCO1 cells after 24 hrs by MTT assay
Format: functional, cell-based
Details: WHCO1, 24 h

For `CC(C)CCC[C@@H](C)[C@H]1CC[C@@H](C2=CC(=O)C3=C[C@H](O)CC[C@]3(C)C2=O)[C@]1(C)CCO`, which IC50 is on record?
The IC50 was 3 µM.

Which IC50 does the source give for `CC(=O)O[C@@H]1[C@@H](OC(C)=O)C(C)=C(CC/C(C)=C/CO)[C@@]2(C)CCCC(C)(C)[C@H]12` here?
Its IC50 is 25 µM.

Which IC50 does the source give for `CC(=O)OC/C=C(\C)CCC1=C(C)[C@H](OC(C)=O)[C@@H](OC(C)=O)[C@H]2C(C)(C)CCC[C@]12C` here?
Its IC50 is 84 µM.

With `CC(=O)O[C@H]1CC(C)(C)[C@@H]2[C@H](OC(C)=O)[C@@H](OC(C)=O)C(C)=C(CC/C(C)=C/CO)[C@@]2(C)C1` as the molecule, how does the IC50 read?
The IC50 was 24 µM.
